Test results from publication PMC6979384, “Characterization of the plant homeodomain (PHD) reader family for their histone tail interactions” (Epigenetics & Chromatin, 2020).

Assays:
Assay in all cases: Histone peptide microarray
Type in all cases: binding, human
SP140L = settings: sheet "Array Heatmap", total n = 4; for Array Heatmap signal, SP140L: GST-tagged reader, histone peptide array
In short: (§1)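 A peptide microarray holding 293 synthetic histone peptides with individual or combinatorial modifications was probed with each GST-PHD protein at 0.5 μM. Values represent mean intensity (±SD) from four replicates.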

KDM7A = settings: sheet "Array Heatmap", total n = 4; for Array Heatmap signal, KDM7A: GST-tagged reader, histone peptide array
In short: as §1

PHF8 = settings: sheet "Array Heatmap", total n = 4; for Array Heatmap signal, PHF8: GST-tagged reader, histone peptide array
In short: as §1

MLL5 = settings: sheet "Array Heatmap", total n = 4; for Array Heatmap signal, MLL5: GST-tagged reader, histone peptide array
In short: as §1

RAG2 = settings: sheet "Array Heatmap", total n = 4; for Array Heatmap signal, RAG2: GST-tagged reader, histone peptide array
In short: as §1

DIDO1 = settings: sheet "Array Heatmap", total n = 4; for Array Heatmap signal, DIDO1: GST-tagged reader, histone peptide array
In short: as §1

ING4 = settings: sheet "Array Heatmap", total n = 4; for Array Heatmap signal, ING4: GST-tagged reader, histone peptide array
In short: as §1

MORC3 (CW) = settings: sheet "Array Heatmap", total n = 4; for Array Heatmap signal, MORC3 (CW): GST-tagged reader, histone peptide array
In short: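 GST-tagged PHD readers, 0.5 μM, probed on a microarray of 293 synthetic histone peptides carrying single or combinatorial PTMs (optimized Petell protocol). Signals are averaged over 4 replicates and expressed as relative binding.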

ING5 = settings: sheet "Array Heatmap", total n = 4; for Array Heatmap signal, ING5: GST-tagged reader, histone peptide array
In short: as §1

AIRE (PP) = settings: sheet "Array Heatmap", total n = 4; for Array Heatmap signal, AIRE (PP): GST-tagged reader, histone peptide array
In short: as §1

PHF23 = settings: sheet "Array Heatmap", total n = 4; for Array Heatmap signal, PHF23: GST-tagged reader, histone peptide array
In short: as §1

PHRF1 (RP) = settings: sheet "Array Heatmap", total n = 4; for Array Heatmap signal, PHRF1 (RP): GST-tagged reader, histone peptide array
In short: as §1

CHD5 (PPCC) = settings: sheet "Array Heatmap", total n = 4; for Array Heatmap signal, CHD5 (PPCC): GST-tagged reader, histone peptide array
In short: as §1

DPF2 (PPC2W2) = settings: sheet "Array Heatmap", total n = 4; for Array Heatmap signal, DPF2 (PPC2W2): GST-tagged reader, histone peptide array
In short: as §1

KDM5B (1) = settings: sheet "Array Heatmap", total n = 4; for Array Heatmap signal, KDM5B (1): GST-tagged reader, histone peptide array
In short: as §1

BPTF (PB) = settings: sheet "Array Heatmap", total n = 4; for Array Heatmap signal, BPTF (PB): GST-tagged reader, histone peptide array
In short: as §1

KDM5A (3) = settings: sheet "Array Heatmap", total n = 4; for Array Heatmap signal, KDM5A (3): GST-tagged reader, histone peptide array
In short: as §1

ING3 = settings: sheet "Array Heatmap", total n = 4; for Array Heatmap signal, ING3: GST-tagged reader, histone peptide array
In short: as §1

CHD5 (PCC) = settings: sheet "Array Heatmap", total n = 4; for Array Heatmap signal, CHD5 (PCC): GST-tagged reader, histone peptide array
In short: as §1

CHD4 (PPCC) = settings: sheet "Array Heatmap", total n = 4; for Array Heatmap signal, CHD4 (PPCC): GST-tagged reader, histone peptide array
In short: as §1

KDM5A (1) = settings: sheet "Array Heatmap", total n = 4; for Array Heatmap signal, KDM5A (1): GST-tagged reader, histone peptide array
In short: as §1

KDM4C (TTP) = settings: sheet "Array Heatmap", total n = 4; for Array Heatmap signal, KDM4C (TTP): GST-tagged reader, histone peptide array
In short: as §1

PHF13 = settings: sheet "Array Heatmap", total n = 4; for Array Heatmap signal, PHF13: GST-tagged reader, histone peptide array
In short: as §1

ING1 = settings: sheet "Array Heatmap", total n = 4; for Array Heatmap signal, ING1: GST-tagged reader, histone peptide array
In short: as §1

KDM5B (3) = settings: sheet "Array Heatmap", total n = 4; for Array Heatmap signal, KDM5B (3): GST-tagged reader, histone peptide array
In short: as §1

TAF3 = settings: sheet "Array Heatmap", total n = 4; for Array Heatmap signal, TAF3: GST-tagged reader, histone peptide array
In short: as §1

BAZ2B = settings: sheet "Array Heatmap", total n = 4; for Array Heatmap signal, BAZ2B: GST-tagged reader, histone peptide array
In short: as §1

PHF2 = settings: sheet "Array Heatmap", total n = 4; for Array Heatmap signal, PHF2: GST-tagged reader, histone peptide array
In short: as §1

ING2 = settings: sheet "Array Heatmap", total n = 4; for Array Heatmap signal, ING2: GST-tagged reader, histone peptide array
In short: as §1

TRIM66 (PB) = settings: sheet "Array Heatmap", total n = 4; for Array Heatmap signal, TRIM66 (PB): GST-tagged reader, histone peptide array
In short: as §1

PHF21A = settings: sheet "Array Heatmap", total n = 4; for Array Heatmap signal, PHF21A: GST-tagged reader, histone peptide array
In short: as §1

H3R8me1 + K9me2: H3 1-20
Array Heatmap signal, SP140L (SP140L): 0.3989
Array Heatmap signal, KDM7A (KDM7A): 0.3959
Array Heatmap signal, PHF8 (PHF8): 0.3836
Array Heatmap signal, MLL5 (MLL5): 0.5733
Array Heatmap signal, RAG2 (RAG2): 0.302
Array Heatmap signal, DIDO1 (DIDO1): 0.8013
Array Heatmap signal, ING4 (ING4): 0.5352
Array Heatmap signal, MORC3 (CW) (MORC3 (CW)): 0.4736
Array Heatmap signal, ING5 (ING5): 0.4288
Array Heatmap signal, AIRE (PP) (AIRE (PP)): 0.4949
Array Heatmap signal, PHF23 (PHF23): 0.6046
Array Heatmap signal, PHRF1 (RP) (PHRF1 (RP)): 0.6787
Array Heatmap signal, CHD5 (PPCC) (CHD5 (PPCC)): 0.658
Array Heatmap signal, DPF2 (PPC2W2) (DPF2 (PPC2W2)): 0.8023
Array Heatmap signal, KDM5B (1) (KDM5B (1)): 0.696
Array Heatmap signal, BPTF (PB) (BPTF (PB)): 0.4109
Array Heatmap signal, KDM5A (3) (KDM5A (3)): 0.6031
Array Heatmap signal, ING3 (ING3): 0.5783
Array Heatmap signal, CHD5 (PCC) (CHD5 (PCC)): 0.7992
Array Heatmap signal, CHD4 (PPCC) (CHD4 (PPCC)): 0.7009
Array Heatmap signal, KDM5A (1) (KDM5A (1)): 0.5283
Array Heatmap signal, KDM4C (TTP) (KDM4C (TTP)): 0.5659
Array Heatmap signal, PHF13 (PHF13): 0.7136
Array Heatmap signal, ING1 (ING1): 0.6213
Array Heatmap signal, KDM5B (3) (KDM5B (3)): 0.5247
Array Heatmap signal, TAF3 (TAF3): 0.3249
Array Heatmap signal, BAZ2B (BAZ2B): 0.525
Array Heatmap signal, PHF2 (PHF2): 0.6657
Array Heatmap signal, ING2 (ING2): 0.6201
Array Heatmap signal, TRIM66 (PB) (TRIM66 (PB)): 0.6813
Array Heatmap signal, PHF21A (PHF21A): 0.4957

H3.3K27vl (15-34): H3.3 15-34
Array Heatmap value (peptide array signal) (SP140L; SP140L, each array performed twice): 0.3739
Array Heatmap value (peptide array signal) (KDM7A; KDM7A, each array performed twice): 0.3156
Array Heatmap value (peptide array signal) (PHF8; PHF8, each array performed twice): 0.3696
Array Heatmap value (peptide array signal) (MLL5; MLL5, each array performed twice): 0.5405
Array Heatmap value (peptide array signal) (RAG2; RAG2, each array performed twice): 0.2413
Array Heatmap value (peptide array signal) (DIDO1; DIDO1, each array performed twice): 0.7045
Array Heatmap value (peptide array signal) (ING4; ING4, each array performed twice): 0.4471
Array Heatmap value (peptide array signal) (MORC3 (CW); MORC3 (CW), each array performed twice): 0.3607
Array Heatmap value (peptide array signal) (ING5; ING5, each array performed twice): 0.3413
Array Heatmap value (peptide array signal) (AIRE (PP); AIRE (PP), each array performed twice): 0.3881
Array Heatmap value (peptide array signal) (PHF23; PHF23, each array performed twice): 0.5229
Array Heatmap value (peptide array signal) (PHRF1 (RP); PHRF1 (RP), each array performed twice): 0.4435
Array Heatmap value (peptide array signal) (CHD5 (PPCC); CHD5 (PPCC), each array performed twice): 0.5207
Array Heatmap value (peptide array signal) (DPF2 (PPC2W2); DPF2 (PPC2W2), each array performed twice): 0.6907
Array Heatmap value (peptide array signal) (KDM5B (1); KDM5B (1), each array performed twice): 0.5524
Array Heatmap value (peptide array signal) (BPTF (PB); BPTF (PB), each array performed twice): 0.3408
Array Heatmap value (peptide array signal) (KDM5A (3); KDM5A (3), each array performed twice): 0.423
Array Heatmap value (peptide array signal) (ING3; ING3, each array performed twice): 0.4849
Array Heatmap value (peptide array signal) (CHD5 (PCC); CHD5 (PCC), each array performed twice): 0.7909
Array Heatmap value (peptide array signal) (CHD4 (PPCC); CHD4 (PPCC), each array performed twice): 0.5729
Array Heatmap value (peptide array signal) (KDM5A (1); KDM5A (1), each array performed twice): 0.4391
Array Heatmap value (peptide array signal) (KDM4C (TTP); KDM4C (TTP), each array performed twice): 0.4488
Array Heatmap value (peptide array signal) (PHF13; PHF13, each array performed twice): 0.5845
Array Heatmap value (peptide array signal) (ING1; ING1, each array performed twice): 0.5627
Array Heatmap value (peptide array signal) (KDM5B (3); KDM5B (3), each array performed twice): 0.4603
Array Heatmap value (peptide array signal) (TAF3; TAF3, each array performed twice): 0.2402
Array Heatmap value (peptide array signal) (BAZ2B; BAZ2B, each array performed twice): 0.4362
Array Heatmap value (peptide array signal) (PHF2; PHF2, each array performed twice): 0.5263
Array Heatmap value (peptide array signal) (ING2; ING2, each array performed twice): 0.6055
Array Heatmap value (peptide array signal) (TRIM66 (PB); TRIM66 (PB), each array performed twice): 0.5686
Array Heatmap value (peptide array signal) (PHF21A; PHF21A, each array performed twice): 0.4671

H3K4me2 + T6p: H3 1-20
Array Heatmap signal, SP140L (SP140L): 0.3405
Array Heatmap signal, KDM7A (KDM7A): 0.3717
Array Heatmap signal, PHF8 (PHF8): 0.3931
Array Heatmap signal, MLL5 (MLL5): 0.5839
Array Heatmap signal, RAG2 (RAG2): 0.2424
Array Heatmap signal, DIDO1 (DIDO1): 0.7205
Array Heatmap signal, ING4 (ING4): 0.4083
Array Heatmap signal, MORC3 (CW) (MORC3 (CW)): 0.4606
Array Heatmap signal, ING5 (ING5): 0.3133
Array Heatmap signal, AIRE (PP) (AIRE (PP)): 0.3956
Array Heatmap signal, PHF23 (PHF23): 0.5061
Array Heatmap signal, PHRF1 (RP) (PHRF1 (RP)): 0.4464
Array Heatmap signal, CHD5 (PPCC) (CHD5 (PPCC)): 0.4881
Array Heatmap signal, DPF2 (PPC2W2) (DPF2 (PPC2W2)): 0.6113
Array Heatmap signal, KDM5B (1) (KDM5B (1)): 0.6237
Array Heatmap signal, BPTF (PB) (BPTF (PB)): 0.3354
Array Heatmap signal, KDM5A (3) (KDM5A (3)): 0.5519
Array Heatmap signal, ING3 (ING3): 0.4685
Array Heatmap signal, CHD5 (PCC) (CHD5 (PCC)): 0.7961
Array Heatmap signal, CHD4 (PPCC) (CHD4 (PPCC)): 0.5639
Array Heatmap signal, KDM5A (1) (KDM5A (1)): 0.3957
Array Heatmap signal, KDM4C (TTP) (KDM4C (TTP)): 0.4526
Array Heatmap signal, PHF13 (PHF13): 0.5699
Array Heatmap signal, ING1 (ING1): 0.5538
Array Heatmap signal, KDM5B (3) (KDM5B (3)): 0.4514
Array Heatmap signal, TAF3 (TAF3): 0.2971
Array Heatmap signal, BAZ2B (BAZ2B): 0.3939
Array Heatmap signal, PHF2 (PHF2): 0.5776
Array Heatmap signal, ING2 (ING2): 0.6785
Array Heatmap signal, TRIM66 (PB) (TRIM66 (PB)): 0.586
Array Heatmap signal, PHF21A (PHF21A): 0.4239
